Publication PMC6160999, “Pharmacokinetics, Tissue Distribution and Excretion of a Novel Diuretic (PU-48) in Rats” (Pharmaceutics, 2018)
“And” between values parts separate entries of the source, which are not always exact repeats. Equal values may be shown once.

Assay: Urine and feces excretion after single oral PU-48 SNEDDS
Format: in vivo
Details: rat, oral PU-48 SNEDDS 12 mg/kg
Protocol: Internal standard (IS, 25 μL) was added to 50 μL plasma, urine, or bile sample in a clean tube, placed into a water bath at 37 °C, and dried under a gentle stream of nitrogen gas, followed by the addition of 0.5 mL of ethyl acetate for liquid-liquid extraction. The mixture was shaken by a vortex mixer for 3 min, and then centrifuged at 8000 rpm (4200× g) for 10 min at 4 °C. After centrifugation, the upper organic phase was transferred into a clean centrifuge tube and then dried it again. The combined upper organic phases were evaporated to dryness at 37 °C under a gentle stream of nitrogen gas. The residue was reconstituted with 50 μL acetonitrile and then centrifuged at 13,000 rpm (12,000× g) for 10 min at 4 °C, the upper liquid was transferred into sample vials. Finally, 5 μL aliquots were injected into the LC–MS/MS system to analyze. Each tissue samples were homogenized in normal saline (0.9% NaCl, 1:3, w/v), and then centrifuged at 10,000× g for 10 min to get the supernatant. Other steps were the same as plasma sample preparation.
Feces samples were homogenized in 0.9% NaCl solution (1 g/10 mL), vortexed for 1 min and then centrifuged at 1200× g for 15 min to gather the supernatant. A volume of 25 μL of IS was added to 500 μL mixture in a clean tube, placed into a water bath at 37 °C and dried under a gentle stream of nitrogen gas, followed by the addition of 2 mL of ethyl acetate for twice liquid-liquid extraction (total 4 mL). The residue was reconstituted with 50 μL mobile phase and then 5 μL aliquots were injected into the HPLC system to analyze.
Six male rats were given single orally administration of PU-48 (12 mg/kg, 1.2 mg/mL in the SNEDDS formulation) and housed in separate stainless-steel metabolism cages. Both feces and urine samples were collected at 0–1, 1–2, 2–4, 4–6, 6–8, 8–12, 12–24, 24–48, 48–72 and 72–96 h. In a separate study, bile samples were collected 0–1, 1–2, 2–4, 4–6, 6–8, 8–12, 12–24, 24–48, 48–72 and 72–96 h after oral administration of PU-48 (12 mg/kg, 1.2 mg/mL in the SNEDDS formulation) to six bile duct-cannulated rats.

Accumulative Excretion Amount, urine (0–1 h): 61.2 ± 13.4 ng
Accumulative Excretion Percentage, urine (0–1 h): 0.0022 ± 0.0005%
Excretion Amount, urine (0–1 h): 61.2 ± 13.4 ng
PU-48 Concentration in urine (0–1 h): 627.9 ± 94.1 ng/mL
Accumulative Excretion Amount, feces (0–6 h): 0.1 µg
Accumulative Excretion Percentage, feces (0–6 h): 0.0022%
Excretion Amount, feces (0–6 h): 0.1 µg
PU-48 Concentration in feces (0–6 h): 0.1 µg/mL
Accumulative Excretion Amount, urine (1–2 h): 131.8 ± 37.9 ng
Accumulative Excretion Percentage, urine (1–2 h): 0.0047 ± 0.0015%
Excretion Amount, urine (1–2 h): 80.8 ± 41.0 ng
PU-48 Concentration in urine (1–2 h): 376.3 ± 184.2 ng/mL
Accumulative Excretion Amount, urine (2–4 h): 203.6 ± 48.4 ng
Accumulative Excretion Percentage, urine (2–4 h): 0.0073 ± 0.0018%
Excretion Amount, urine (2–4 h): 107.7 ± 30.0 ng
PU-48 Concentration in urine (2–4 h): 97.3 ± 20.1 ng/mL
Accumulative Excretion Amount, urine (4–6 h): 345.3 ± 107.2 ng
Accumulative Excretion Percentage, urine (4–6 h): 0.0123 ± 0.0038%
Excretion Amount, urine (4–6 h): 141.7 ± 78.0 ng
PU-48 Concentration in urine (4–6 h): 156.3 ± 65.6 ng/mL
Accumulative Excretion Amount, feces (6–8 h): 0.4 µg
Accumulative Excretion Percentage, feces (6–8 h): 0.0128%
Excretion Amount, feces (6–8 h): 0.4 µg
PU-48 Concentration in feces (6–8 h): 0.4 µg/mL
Accumulative Excretion Amount, urine (6–12 h): 496.4 ± 129.9 ng
Accumulative Excretion Percentage, urine (6–12 h): 0.0178 ± 0.0048%
Excretion Amount, urine (6–12 h): 151.1 ± 94.8 ng
PU-48 Concentration in urine (6–12 h): 83.6 ± 56.6 ng/mL
Accumulative Excretion Amount, feces (8–12 h): 12.5 ± 14.6 µg
Accumulative Excretion Percentage, feces (8–12 h): 0.44 ± 0.51%
Excretion Amount, feces (8–12 h): 12.5 ± 14.5 µg
PU-48 Concentration in feces (8–12 h): 6.9 ± 6.5 µg/mL
Accumulative Excretion Amount, feces (12–24 h): 31.5 ± 21.4 µg
Accumulative Excretion Amount, urine (12–24 h): 850.7 ± 589.4 ng
Accumulative Excretion Percentage, feces (12–24 h): 1.11 ± 0.73%
Accumulative Excretion Percentage, urine (12–24 h): 0.0306 ± 0.0216%
Excretion Amount, feces (12–24 h): 19.0 ± 11.3 µg
Excretion Amount, urine (12–24 h): 354.3 ± 485.8 ng
PU-48 Concentration in feces (12–24 h): 9.4 ± 5.3 µg/mL
PU-48 Concentration in urine (12–24 h): 65.3 ± 94.6 ng/mL
Accumulative Excretion Percentage, urine (24–36 h): 0.0380 ± 0.0250%
Excretion Amount, urine (24–36 h): 207.5 ± 123.7 ng
PU-48 Concentration in urine (24–36 h): 45.0 ± 36.9 ng/mL
Accumulative Excretion Amount, feces (24–48 h): 41.0 ± 21.7 µg
Accumulative Excretion Percentage, feces (24–48 h): 1.45 ± 0.74%
Excretion Amount, feces (24–48 h): 9.5 ± 9.5 µg
PU-48 Concentration in feces (24–48 h): 1.8 ± 1.9 µg/mL
Excretion Amount, urine (36–48 h): 158.4 ± 125.3 ng
PU-48 Concentration in urine (36–48 h): 25.6 ± 27.4 ng/mL
Accumulative Excretion Amount, feces (48–72 h): 44.3 ± 22.1 µg
Accumulative Excretion Amount, urine (48–72 h): 1319.8 ± 734.0 ng
Accumulative Excretion Percentage, feces (48–72 h): 1.56 ± 0.75%
Accumulative Excretion Percentage, urine (48–72 h): 0.0473 ± 0.0267%
Excretion Amount, feces (48–72 h): 3.2 ± 4.4 µg
Excretion Amount, urine (48–72 h): 103.2 ± 94.5 ng
PU-48 Concentration in feces (48–72 h): 0.5 ± 0.7 µg/mL
PU-48 Concentration in urine (48–72 h): 7.5 ± 5.9 ng/mL
Accumulative Excretion Amount, urine (72-96 h (within 96 h)): 1458.5 ± 733.1 ng
Excretion Amount, urine (72-96 h): 138.7 ± 101.2 ng
PU-48 Concentration in urine (72-96 h): 9.0 ± 5.4 ng/mL
Accumulative Excretion Amount, feces (72–96 h (within 96 h)): 45.5 ± 22.0 µg
Accumulative Excretion Percentage, feces (72–96 h (within 96 h)): 1.61 ± 0.74% and 1.60%
Excretion Amount, feces (72–96 h): 1.2 ± 1.4 µg
PU-48 Concentration in feces (72–96 h): 0.2 ± 0.2 µg/mL
Total excretion of PU-48 parent drug in the urine, feces, and bile (within 96 h): less than 2%
Structure (SMILES): COC(=O)c1sc2nc3ccc(OC)cc3cc2c1N [PU-48, Methyl 3-amino-6-methoxythieno [2,3-b] quinoline-2-carboxylate]
Accumulative Excretion Percentage, urine (72-96 h (within 96 h)): 0.0523 ± 0.0267% and 0.052 ± 0.0267% and 0.052%
